In paper PMC9354084 (ACS Chemical Neuroscience, 2022):
Read-outs that look alike come from different tables or passages of the source.

Legend:
CK-1δ [1] = target: T1, CK-1δ (Homo sapiens, UniProt P48730); settings: cited from earlier work
T1 construct: amino acids 1–294; GST (N); purchased Merck Millipore
T1 sequence (P48730 1-294): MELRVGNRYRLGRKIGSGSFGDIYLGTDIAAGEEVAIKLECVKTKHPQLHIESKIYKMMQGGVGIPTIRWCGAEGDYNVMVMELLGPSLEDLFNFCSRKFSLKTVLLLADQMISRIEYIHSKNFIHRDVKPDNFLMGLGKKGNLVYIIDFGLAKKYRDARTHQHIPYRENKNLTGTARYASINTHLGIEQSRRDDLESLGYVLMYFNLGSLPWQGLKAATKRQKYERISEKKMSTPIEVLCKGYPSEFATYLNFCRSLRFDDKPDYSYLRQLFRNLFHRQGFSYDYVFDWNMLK

[2] = tested on: iNOS expression in N9 microglial cells; experiment: Immunomodulation in LPS-insulted N9 microglia, iNOS Western blot; format: cell-based; settings: LPS-insulted N9, 10 μM
[3] = tested on: Bcl-2 expression in N9 microglial cells; experiment: Antiapoptotic effects in LPS-insulted N9 microglia, Bcl-2 Western blot; format: cell-based
LH5 lymphoblasts = experiment: Antioxidant activity after menadione in healthy lymphoblasts; format: cell-based, human; settings: LH5, 10 μM menadione 3 h, 10 µM compound pretreatment 21 h
hMAO-B = target: T2, hMAO-B (Homo sapiens, UniProt P27338); experiment: hMAO-B inhibitory activity (kynuramine, spectrophotometric); format: biochemical; settings: for inhibition at 10 µM: read-out: hMAO-B inhibition at the highest concentration tested; for SI: hMAO-B selectivity index = IC50 (hMAO-A)/IC50 (hMAO-B): bounds assume IC50 = 10 µM for inactive isoform
T2 sequence (P27338 1-520): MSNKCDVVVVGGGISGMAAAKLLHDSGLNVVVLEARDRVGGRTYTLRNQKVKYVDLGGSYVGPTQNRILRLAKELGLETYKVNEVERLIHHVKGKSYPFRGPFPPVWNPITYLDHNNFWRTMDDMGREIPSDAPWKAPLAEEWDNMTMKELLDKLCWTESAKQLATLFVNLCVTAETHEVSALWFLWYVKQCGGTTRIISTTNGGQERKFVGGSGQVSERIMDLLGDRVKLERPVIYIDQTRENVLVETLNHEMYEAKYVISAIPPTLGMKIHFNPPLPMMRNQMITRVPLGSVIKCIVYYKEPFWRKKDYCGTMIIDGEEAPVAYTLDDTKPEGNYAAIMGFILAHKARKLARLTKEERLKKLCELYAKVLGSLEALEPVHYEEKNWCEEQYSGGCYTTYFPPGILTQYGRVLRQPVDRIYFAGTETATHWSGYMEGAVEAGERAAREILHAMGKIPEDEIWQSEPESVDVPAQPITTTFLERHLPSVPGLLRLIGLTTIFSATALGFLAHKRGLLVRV

hMAO-A = target: T3, hMAO-A (Homo sapiens, UniProt P21397); experiment: hMAO-A inhibitory activity (kynuramine, spectrophotometric); format: biochemical; settings: for inhibition at 10 µM: read-out: hMAO-A inhibition at the highest concentration tested
T3 sequence (P21397 1-527): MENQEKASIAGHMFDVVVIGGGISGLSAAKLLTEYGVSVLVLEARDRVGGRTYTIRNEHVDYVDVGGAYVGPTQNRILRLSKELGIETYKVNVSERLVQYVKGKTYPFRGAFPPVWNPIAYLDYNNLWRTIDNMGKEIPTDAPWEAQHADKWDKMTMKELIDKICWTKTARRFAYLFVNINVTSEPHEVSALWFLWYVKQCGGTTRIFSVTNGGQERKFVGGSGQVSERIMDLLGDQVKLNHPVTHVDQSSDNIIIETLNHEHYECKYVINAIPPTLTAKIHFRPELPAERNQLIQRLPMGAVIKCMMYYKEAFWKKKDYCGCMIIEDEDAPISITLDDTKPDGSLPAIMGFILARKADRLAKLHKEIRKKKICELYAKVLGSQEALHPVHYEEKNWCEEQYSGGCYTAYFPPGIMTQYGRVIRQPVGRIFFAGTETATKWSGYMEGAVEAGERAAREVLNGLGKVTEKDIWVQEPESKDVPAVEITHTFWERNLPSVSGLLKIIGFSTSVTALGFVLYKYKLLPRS

CK-1δ [4] = target: T1, CK-1δ; experiment: CK-1δ activity assay (KinaseGlo luminescence); format: biochemical; settings: read-out: residual CK-1δ activity (%)
Protocol: CK-1δ activity assay. Compounds were evaluated towards CK-1δ (Merck Millipore, recombinant human, amino acids 1–294, with N-terminal GST-tagged) with the KinaseGloR luminescence assay (Promega) […]
following procedures reported in literature.10 In detail, luminescent assays were performed in black 96-well plates, using a buffer composed of: 50 mM HEPES (pH 7.5), 1 mM EDTA, 1 mM EGTA, and 15 mM […]
solution was used as a negative control. In a typical assay, 10 μL of inhibitor solution (obtained using a 10 mM DMSO solution diluted in assay buffer to 160 μM that corresponds to a final concentration of 40 μM in the assay) and 10 μL (16 ng of CK1δ) of enzyme solution were added to the well, followed by 20 μL of assay buffer containing 0.1% casein substrate and 4 μM ATP. The final DMSO concentration in the reaction […]
After 60 min of incubation at 30 °C for CK1δ the enzymatic reactions were stopped with 40 μL of Kinase-Glo reagent (Promega). Luminescence signal (relative light unit,RLU) was recorded after 10 min at 25 °C using Tecan Infinite M100. The activity is proportional to the difference of the total and consumed ATP. The residual activities of the enzyme were calculated on the basis of maximal activities measured in the absence of inhibitor. Data were analyzed using Excel and percentages of enzyme residual activity are reported as means ± standard deviation of two independent experiments performed in […]

[5] = PAMPA-BBB permeability assay; settings: for Papp: PAMPA, PAMPA-BBB; for CNS prediction: predicted from PAMPA Pe
[6] = tested on: primary cerebellar granule neurons (CGNs); experiment: Neuroprotection on glutamate-mediated excitotoxicity in CGNs (MTT); settings: 100 μM glutamate; for reversal of glutamate-mediated excitotoxicity: CGNs
LPS5 lymphoblasts [7] = experiment: Antioxidant activity after menadione in ALS patient lymphoblasts; format: cell-based, human; settings: for rescue of cell viability after menadione: LPS5, 10 μM menadione 3 h, 10 µM compound pretreatment 21 h
LPS5 lymphoblasts [8] = experiment: Cell viability in mutSOD1 lymphoblasts (resazurin reduction); format: cell-based, human; settings: LPS5 (mutSOD1), 1, 10, 100 µM, 24 h
[9] = Antioxidant activity after menadione in healthy lymphoblasts; format: cell-based, human; settings: human, LH5 lymphoblast-derived cell line, read-out: cell viability after menadione insult
[10] = Antioxidant activity after menadione in ALS patient lymphoblasts; format: cell-based, human; settings: human, LPS5 lymphoblast-derived cell line; LPS5, 50 μM menadione; read-out: cell viability after menadione insult
[11] = PAMPA
[12] = Table S3, mean ± SD, highest concentration 10 µM, read-out: IC50 hMAO-B
[13] = Table S3, mean ± SD, highest concentration 10 µM, read-out: IC50 hMAO-A
[14] = pH 7.4, Pe, in vitro permeability coefficient, PBS pH 7.4, Pe ± SEM
[15] = pH 7.4, permeability coefficient (Pe)

Row | Compound | IC50 (hMAO-B; [12]) [µM] | IC50 (hMAO-A; [13]) [µM] | remaining activity at 40 µM (CK-1δ [4]) [%] | inhibition at 10 µM (hMAO-B) [%] | Papp [5, 14] [×10⁻⁶ cm/s] | inhibition at 10 µM (hMAO-A) [%] | CNS prediction [5] | also measured
1 | CC[C@H](CO)Nc1nc(NCc2ccc(-c3ccccn3)cc2)c2ncn(C(C)C)c2n1 [CR8] | – | – | – | – | – | – | – | IC50 (CK-1δ [1]; read-out: IC50 (positive control)): 0.4 µM
2 | Nc1nc2ccc(OC(F)(F)F)cc2s1 [Compound 1, riluzole, reference compound] | > 10 | 8.71 ± 0.81 | – | – | – | – | – | IC50 (CK-1δ [1]; read-out: IC50 against CK1δ): 16.1 µM; iNOS expression [2]: moderate decrease of iNOS expression; Bcl-2 expression ([3]; LPS-insulted N9, 1 or 10 μM): increased the level of the anti-apoptotic Bcl-2 marker; rescue of cell viability after menadione (LH5 lymphoblasts): a viability recovery trend; IC50 (hMAO-A; read-out: hMAO-A IC50): 8.7 µM
3 | C#CCN[C@@H]1CCc2ccccc21 [Compound 2, rasagiline, reference compound] | – | – | – | – | – | – | – | iNOS expression [2]: moderate decrease of iNOS expression; Bcl-2 expression ([3]; LPS-insulted N9, 1 or 10 μM): increased the level of the anti-apoptotic Bcl-2 marker
4 | C#CCN(CC#C)Cc1ccc2nc(N)sc2c1 [Compound 3] | > 10 | > 10 | 64.4 | < 50 | 24.9 ± 0.25 | < 50 | CNS + (CNS +: high BBB permeation predicted, Pe (×10-6 cm s-1) > 4.0) | melting point: 148 °C
5 | C#CCNCc1ccc2nc(N)sc2c1 [Compound 4] | > 10 | > 10 | 69 | < 50 | 9.3 ± 0.1 | < 50 | CNS + (CNS +: high BBB permeation predicted, Pe (×10-6 cm s-1) > 4.0) | –
6 | N[C@@H](CCC(=O)O)C(=O)O [glutamate, reference compound] | – | – | – | – | – | – | – | viability of CGNs exposed to glutamate ([6]; compared with the control): 80%
7 | CC1=CC(=O)c2ccccc2C1=O [menadione, 2-methyl-1,4-naphthoquinone, reference compound] | – | – | – | – | – | – | – | viability at 3 h, 10 µM ([9]; LH5, 10 μM menadione): 80%; viability at 3 h, 50 µM ([9]; LH5, 50 μM menadione): ~40%; viability at 3 h, 50 µM [10]: ~80%; cytotoxic effect of menadione (LPS5 lymphoblasts [7]; LPS5, 10 μM menadione): unable to cause a cytotoxic effect
8 | CCN(C)C(=O)Oc1cccc([C@H](C)N(C)C)c1 [rivastigmine] | – | – | – | – | – | – | – | CNS prediction [11]: CNS + (key: CNS +: high BBB permeation predicted, Pe (×10-6 cm s-1) > 4.0; CNS -: low BBB permeation predicted, Pe (×10-6 cm s-1) < 2.0)

Continued, in another order:

Row | IC50 (hMAO-B; [12]) [µM] | IC50 (hMAO-A; [13]) [µM] | remaining activity at 40 µM (CK-1δ [4]) [%] | inhibition at 10 µM (hMAO-B) [%] | Papp [5, 14] [×10⁻⁶ cm/s] | inhibition at 10 µM (hMAO-A) [%] | Compound | CNS prediction [5] | also measured
9 | 9.31 ± 1.57 | 2.73 ± 0.39 | 83.7 | – | 22.7 ± 0.6 | – | C#CCN(C)Cc1ccc2nc(N)sc2c1 [Compound 5] | CNS + (CNS +: high BBB permeation predicted, Pe (×10-6 cm s-1) > 4.0) | reversal of glutamate-mediated excitotoxicity ([6]; compound 1, 10, 25 μM): no significant changes; Bcl-2 expression ([3]; LPS-insulted N9, 10 μM): a trend of recovery in Bcl-2 expression; rescue of cell viability after menadione (LH5 lymphoblasts): a better restorative activity trend than the combination; SI: hMAO-B selectivity index = IC50 (hMAO-A)/IC50 (hMAO-B) (hMAO-B): 0.29; IC50 (hMAO-B; read-out: hMAO-B IC50): 9.3 ± 1.6 µM; rescue of cell viability after menadione (LPS5 lymphoblasts [7]): no significant effects; IC50 (hMAO-A; read-out: hMAO-A IC50): 2.7 ± 0.4 µM
10 | > 10 | 6.88 ± 0.46 | 85.2 | – | 10.2 ± 0.25 | – | C#CCNc1nc2ccc(N(CC#C)C(C)=O)cc2s1 [Compound 6] | CNS + (CNS +: high BBB permeation predicted, Pe (×10-6 cm s-1) > 4.0) | cytotoxic effects, cell viability (LPS5 lymphoblasts [8]): no toxicity; reversal of glutamate-mediated excitotoxicity ([6]; compound at 1 and 10 μM): restored viability; reduction of iNOS level [2]: about 60%; Bcl-2 expression ([3]; LPS-insulted N9, 10 μM): not evident; Bcl-2 expression ([3]; LPS-insulted N9, 1 or 10 μM): no increase in the level of the Bcl-2 anti-apoptotic marker; rescue of cell viability after menadione (LH5 lymphoblasts): a better restorative activity trend than the combination; SI: hMAO-B selectivity index = IC50 (hMAO-A)/IC50 (hMAO-B) (hMAO-B): < 0.69; rescue of cell viability after menadione (LPS5 lymphoblasts [7]): no significant effects; Papp [5, 15]: 10.1 ± 0.2 ×10⁻⁶ cm/s; IC50 (hMAO-A; read-out: hMAO-A IC50): 6.9 µM
11 | > 10 | > 10 | – | < 50 | 7.7 ± 1 | < 50 | C#CCNC1CCc2nc(N)sc2C1 (centres unmarked) [Compound 7] | CNS + (CNS +: high BBB permeation predicted, Pe (×10-6 cm s-1) > 4.0) | Papp [5, 15]: 7.7 ± 1 ×10⁻⁶ cm/s
12 | > 10 | > 10 | – | < 50 | 4.6 ± 0.6 | < 50 | C#CCNc1nc2c(s1)CC(N(CC#C)C(C)=O)CC2 (centres unmarked) [Compound 8] | CNS + (CNS +: high BBB permeation predicted, Pe (×10-6 cm s-1) > 4.0) | Papp [5, 15]: 4.6 ± 0.6 ×10⁻⁶ cm/s
13 | – | – | – | – | 0.62 ± 0.16 | – | CO/N=C(\C(=O)N[C@@H]1C(=O)N2C(C(=O)O)=C(COC(N)=O)CS[C@H]12)c1ccco1 [cefuroxime, reference compound] | CNS - (CNS -: low BBB permeation predicted, Pe (×10-6 cm s-1) < 2.0) | –
